Data published in BindingDB's records for doi:10.1016/j.bmcl.2011.09.133 (Genzyme, 2011).

experiment: Antagonist activity against human CCR5 assessed as inhibition of HIV1 gp120-induced cell-cell fusion between human HeLa P4/R5 cells and CHO-tat10 cells expressing HIV-1JRFL viral envolop protein after 20 hrs by beta-galactosidase reporter gene assay

Row | SMILES | IC50 [nM]
1 | Cc1ccncc1CN(c1ccc(N2CCOCC2)cc1)C1CCN([C@H](C)CCNC(=O)c2c(C)cc(Cl)nc2C)CC1 | 1590
2 | COc1ccc(N(Cc2cccc(C#N)n2)C2CCN([C@H](C)CCNC(=O)c3c(C)cc(C#N)nc3C)CC2)cc1 | 0.3
3 | Cc1ccncc1CN(c1ccccc1)C1CCN([C@H](C)CCNC(=O)c2c(C)cc(C#N)nc2C)CC1 | 7
4 | Cc1ccncc1CN(c1ccc(OCC(N)=O)cc1)C1CCN([C@H](C)CCNC(=O)c2c(C)cc(C#N)nc2C)CC1 | 0.98
5 | Cc1ccncc1CN(c1ccc([S+](C)[O-])cc1)C1CCN([C@H](C)CCNC(=O)c2c(C)ncnc2C)CC1 (stereo partly specified) | 130
6 | COCCOc1ccc(N(Cc2cnccc2C)C2CCN([C@H](C)CCNC(=O)c3c(C)cc(F)nc3C)CC2)cc1 | 1.3
7 | COCCOc1ccc(N(Cc2cnccc2C)C2CCN([C@H](C)CCNC(=O)c3c(C)cc(C#N)nc3C)CC2)cc1 | 0.8
8 | CC(CCNC(=O)c1c(Cl)cncc1Cl)N1CCC(N(Cc2cccc(C#N)c2)c2ccc(OC(F)(F)F)cc2)CC1 (stereo unspecified) | 3
9 | COc1ccc(N(Cc2cccc(C#N)c2)C2CCN(C(C)CCNC(=O)c3c(Cl)cncc3Cl)CC2)cc1 (stereo unspecified) | 2
10 | CC(CCNC(=O)c1c(Cl)cncc1Cl)N1CCC(N(Cc2cccc(C#N)c2)c2ccc(C(F)(F)F)cc2)CC1 (stereo unspecified) | 3
11 | CC(CCNC(=O)c1c(Cl)cncc1Cl)N1CCC(N(Cc2cccc(C#N)c2)c2ccc(Br)cc2)CC1 (stereo unspecified) | 8
12 | COc1cccc(CN(c2ccc(Br)cc2)C2CCN(C(C)CCNC(=O)c3c(Cl)cncc3Cl)CC2)c1 (stereo unspecified) | 387
13 | CC(CCNC(=O)c1c(Cl)cncc1Cl)N1CCC(N(Cc2cccc(Cl)c2)c2ccc(Br)cc2)CC1 (stereo unspecified) | 30
14 | CC(CCNC(=O)c1c(Cl)cncc1Cl)N1CCC(N(Cc2ccccc2)c2ccc(Oc3ccc(C(=O)O)cc3)cc2)CC1 (stereo unspecified) | 11
15 | CC(CCNC(=O)c1c(Cl)cncc1Cl)N1CCC(N(Cc2ccccc2)c2ccc(C(=O)N(C)C)cc2)CC1 (stereo unspecified) | 116
16 | COC(=O)c1ccc(N(Cc2ccccc2)C2CCN(C(C)CCNC(=O)c3c(Cl)cncc3Cl)CC2)cc1 (stereo unspecified) | 90
17 | CC(CCNC(=O)c1c(Cl)cncc1Cl)N1CCC(N(Cc2ccccc2)c2ccc(C#N)cc2)CC1 (stereo unspecified) | 19
18 | CC(CCNC(=O)c1c(Cl)cncc1Cl)N1CCC(N(Cc2ccccc2)c2ccc(OC(F)(F)F)cc2)CC1 (stereo unspecified) | 26

Row | SMILES | IC50 [nM]
19 | COc1ccc(N(Cc2ccccc2)C2CCN(C(C)CCNC(=O)c3c(Cl)cncc3Cl)CC2)cc1 (stereo unspecified) | 50
20 | CC(CCNC(=O)c1c(Cl)cncc1Cl)N1CCC(N(Cc2ccccc2)c2ccc(C(F)(F)F)cc2)CC1 (stereo unspecified) | 34
21 | COc1ccc(N(Cc2cccc(C#N)n2)C2CCN([C@H](C)CCNC(=O)c3c(C)cc(Cl)nc3C)CC2)cc1 | 0.3
22 | COc1ccc(N(Cc2cccc(C#N)n2)C2CCN([C@H](C)CCNC(=O)c3c(C)cc(F)nc3C)CC2)cc1 | 0.7
23 | COCCOc1ccc(N(Cc2cnccc2C)C2CCN([C@H](C)CCNC(=O)c3c(C)cc(Cl)nc3C)CC2)cc1 | 0.6
24 | COc1ccc(N(Cc2cnccc2C)C2CCN([C@H](C)CCNC(=O)c3c(C)cc(C(=O)NC(C)C)nc3C)CC2)cc1 | 0.09
25 | COc1ccc(N(Cc2cnccc2C)C2CCN([C@H](C)CCNC(=O)c3c(C)cc(C#N)nc3C)CC2)cc1 | 0.3
26 | COc1ccc(N(Cc2cccnc2)C2CCN([C@H](C)CCNC(=O)c3c(C)cc(F)nc3C)CC2)cc1 | 1.6
27 | COc1ccc(N(Cc2cnccc2C)C2CCN([C@@H](C)CCNC(=O)c3c(C)cc(Cl)nc3C)CC2)cc1 | 40
28 | COc1ccc(N(Cc2cnccc2C)C2CCN([C@H](C)CCNC(=O)c3c(C)cc(F)nc3C)CC2)cc1 | 0.3
29 | COc1ccc(N(Cc2cccnc2)C2CCN([C@H](C)CCNC(=O)c3c(C)cc(Cl)nc3C)CC2)cc1 | 1.5
30 | COc1ccc(N(Cc2cnccc2C)C2CCN([C@H](C)CCNC(=O)c3c(C)cc(Cl)nc3C)CC2)cc1 | 0.2
31 | COc1ccc(N(Cc2cnccc2C)C2CCN([C@H](C)CCNC(=O)c3cnc(Cl)cc3C)CC2)cc1 | 12.3
32 | COc1ccc(N(Cc2cnccc2C)C2CCN([C@H](C)CCNC(=O)c3c(C)ccnc3Cl)CC2)cc1 | 0.7
33 | COc1ccc(N(Cc2cnccc2C)C2CCN([C@H](C)CCNC(=O)c3c(C)ccnc3C)CC2)cc1 | 2.4
34 | COc1ccc(N(Cc2cnccc2C)C2CCN([C@H](C)CCNC(=O)c3c(C)cncc3C)CC2)cc1 | 7
35 | CC(CCNC(=O)c1c(Cl)cncc1Cl)N1CCC(N(Cc2cccc(C#N)c2)c2ccc(C#N)cc2)CC1 (stereo unspecified) | 12
36 | CC(CCNC(=O)c1c(Cl)cncc1Cl)N1CCC(N(Cc2ccccc2)c2ccc(Br)cc2)CC1 (stereo unspecified) [N-(3-(4-(benzyl(4-bromophenyl)amino)piperidin-1-yl)butyl)-3,5-dichloroisonicotinamide] | 49
